Consider 16 compounds from ChEMBL document CHEMBL5230117, “Chalcones: Unearthing their therapeutic possibility as monoamine oxidase B inhibitors” (Eur J Med Chem, 2020).

The species entered for series [1] is Homo sapiens. As to the kind of experiment: Selectivity index, ratio of IC50 for human MAO-A to IC50 for human MAO-B.
Series [2] addresses T1, Amine oxidase [flavin-containing] B (Homo sapiens, UniProt P27338).
T1 sequence (P27338 whole entry): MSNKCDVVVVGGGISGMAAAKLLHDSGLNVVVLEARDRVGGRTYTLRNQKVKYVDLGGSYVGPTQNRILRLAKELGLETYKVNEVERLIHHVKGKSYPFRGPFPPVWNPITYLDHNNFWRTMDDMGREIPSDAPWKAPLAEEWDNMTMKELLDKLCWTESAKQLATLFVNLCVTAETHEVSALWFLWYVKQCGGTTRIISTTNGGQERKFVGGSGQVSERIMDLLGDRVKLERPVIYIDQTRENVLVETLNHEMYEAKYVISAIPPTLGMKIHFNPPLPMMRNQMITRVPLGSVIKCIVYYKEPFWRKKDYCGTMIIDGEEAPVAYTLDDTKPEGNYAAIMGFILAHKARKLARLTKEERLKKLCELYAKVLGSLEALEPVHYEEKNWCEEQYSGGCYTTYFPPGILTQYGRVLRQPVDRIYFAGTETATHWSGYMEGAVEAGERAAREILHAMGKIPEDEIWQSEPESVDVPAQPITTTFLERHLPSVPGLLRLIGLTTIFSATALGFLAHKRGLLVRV
As to the kind of experiment: Binding affinity to human MAO-B using p-tyramine as substrate incubated for 15 mins by amplex red dye based microplate assay.

For series [3], the species on record is Homo sapiens. As to the kind of experiment: Selectivity index, ratio of IC50 for human MAO-A to IC50 for human MAO-B by fluorescence based assay.
The target of series [4] is T2, Amine oxidase [flavin-containing] A (Homo sapiens, UniProt P21397).
T2 sequence (P21397 whole entry): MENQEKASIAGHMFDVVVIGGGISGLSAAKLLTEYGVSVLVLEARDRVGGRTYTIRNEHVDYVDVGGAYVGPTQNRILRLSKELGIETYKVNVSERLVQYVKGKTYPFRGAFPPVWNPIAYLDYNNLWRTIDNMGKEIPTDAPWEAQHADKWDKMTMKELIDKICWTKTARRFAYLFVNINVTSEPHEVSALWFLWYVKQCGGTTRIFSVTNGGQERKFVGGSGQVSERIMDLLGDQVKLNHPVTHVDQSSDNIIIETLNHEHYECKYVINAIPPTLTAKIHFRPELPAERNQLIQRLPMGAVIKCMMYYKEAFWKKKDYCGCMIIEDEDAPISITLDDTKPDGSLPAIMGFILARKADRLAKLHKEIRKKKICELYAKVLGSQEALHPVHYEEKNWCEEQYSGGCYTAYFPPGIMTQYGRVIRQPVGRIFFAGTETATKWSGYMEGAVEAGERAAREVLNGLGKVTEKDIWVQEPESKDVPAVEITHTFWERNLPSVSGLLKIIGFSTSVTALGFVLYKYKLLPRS
The series is described as follows: Inhibition of human MAO-A using kynuramine as substrate incubated for 20 mins by fluorescence based assay relative to control.

Series [5] addresses T1, Amine oxidase [flavin-containing] B. The series is described as follows: Inhibition of human MAO-B using kynuramine as substrate incubated for 20 mins by fluorescence based assay relative to control.
For series [6] the target is unchanged. As to the kind of experiment: Binding affinity to human MAO-B using kynuramine as substrate incubated for 30 mins by absorbance based assay.
The target is the same in series [7]. The series is described as follows: Inhibition of human MAO-B using kynuramine as substrate incubated for 30 mins by fluorescence based assay. The note with it: 0.5 h.
The target is the same in series [8]. As to the kind of experiment: Inhibition of human MAO-B.
Series [9] shares this target. The series is described as follows: Inhibition of human MAO-B using p-tyramine as substrate by fluorimetric based assay.
Series [10] addresses T2, Amine oxidase [flavin-containing] A. The series is described as follows: Inhibition of human MAO-A using kynuramine as substrate incubated for 10 mins by continuous spectrophotometric method.
Series [11] deals with T1, Amine oxidase [flavin-containing] B. As to the kind of experiment: Inhibition of human MAO-B using benzylamine as substrate.

For the compound `O=C(/C=C/C=C/c1ccccc1)c1ccco1`, in the series listed under Homo sapiens [1], the Ratio IC50 was determined as 172. In series [2], this compound showed a Ki of 4.1 nM.

On to `COc1cc(O)c(C(=O)/C=C/c2ccccc2O)c(OC)c1`, for which the Ratio IC50 in the series listed under Homo sapiens [3] was 0.14. The results for the IC50 in series [4] and in [5] were 390 nM and 2710 nM, respectively.

With `CC(C)=CCC/C(C)=C/Cc1c(O)ccc(C(=O)/C=C/c2ccc(O)cc2)c1O` [XANTHOANGELOL], the Ratio IC50 in the series listed under Homo sapiens [3] is more than 3.03. For the same compound, the values for the IC50 in [4] and in series [5] were more than 40000 nM and 13200 nM, respectively.

The compound `O=C(/C=C/c1ccc(O)c(O)c1O)c1ccco1` had a Ki in [6] of 3550 nM. This counts as single-digit micromolar.

As to `COc1cc(O)ccc1C(=O)/C=C/c1ccc(O)cc1`, in the series listed under Homo sapiens [3], the Ratio IC50 amounted to 9.9. For the same compound, the 50% inhibitory concentration (IC50) worked out at 10100 nM in series [4] and 380 nM in [5].

In turn, `O=C(/C=C/c1ccc(Cl)cc1Cl)c1ccco1` yielded a Ki in series [6] of 850 nM.

In the case of `COc1ccc(C(=O)/C=C/c2ccc(N(C)C)cc2)cc1`, the “inhibition (INH)” value in series [7] is listed as less than 75%.

For the compound `COc1ccc(C(=O)/C=C/c2ccc(O)cc2)c(O)c1CC=C(C)C`, the Ratio IC50 in the series filed under Homo sapiens [3] was more than 28.8. Besides, the IC50 is more than 40000 nM in [4] and 1390 nM in series [5].

Compound `COC(=O)c1ccc(/C=C/C(=O)c2ccco2)cc1` had a Ki in series [6] of 300 nM.

On to `Cc1ccc(/C=C/C(=O)c2ccc3c(c2)OCCO3)cc1`, for which, in series [8], it took 3.4 nM to reach half-maximal inhibition (IC50).

Turning to `CC(C)=CCc1cc(C(=O)/C=C/c2ccc(O)c(O)c2)c(O)cc1O` [BROUSSOCHALCONE A], the Ratio IC50 in the series listed under Homo sapiens [3] came out at 0.1. The IC50 in series [4] is 720 nM; in [5] it was 7020 nM.

Turning to `COc1ccc(/C=C/C(=O)c2ccc(Cl)cc2)cc1`, in [7], the “inhibition (INH)” value is less than 75%.

As for `O=C(/C=C/c1csc2ccccc12)c1ccco1`, the Ratio IC50 in the series filed under Homo sapiens [1] was 12.6. In [2], this compound yielded a Ki of 72 nM.

On to `COc1cc2c(Nc3ccc(C(=O)/C=C/c4nc(C)c(C)nc4C)cc3)ncnc2c(OC)c1OC`, for which the IC50 in series [9] is 2600 nM. That is a single-digit micromolar value.

As to `CC/C(C)=N/Oc1ccc(C(=O)/C=C/c2ccccc2)cc1`, the Ratio IC50 in the series listed under Homo sapiens [1] is more than 120. For the same compound, the 50% inhibitory concentration (IC50) in series [10] is more than 10000 nM; in series [11], 86 nM.

On to `O=C(/C=C/c1ccc(Br)cc1)c1c[nH]c2ccccc12`, for which the Ratio IC50 in the series listed under Homo sapiens [1] was found to be 120. For the same compound, the inhibition constant Ki in series [2] was 10 nM.
